What was measured:
[1] = system: neonatal rat cardiomyocytes; test: Hypoxia-induced apoptosis in cultured neonatal rat cardiomyocytes; type: cell-based; settings: hypoxia 0.3% O2 for 36 h, apoptotic cells by FACS
Description: Primary cultures of neonatal rat cardiomyocytes were obtained from the ventricles of 1-day-old Sprague Dawley rats (Janvier, France). The rats were euthanized and their hearts excised. Hearts cut into small pieces (1-2 mm^3) and enzymatically digested using the Neonatal Heart Dissociation Kit rat and the gentleMACS™ Dissociator (MiltenyiBiotec, Germany). After dissociation, the homogenates were filtered (70 μm) to obtain a single-cell suspension. Isolated cells were collected by centrifugation and resuspended in Dulbecco's Modified Eagle's Medium (DMEM) containing 10% horse serum (HS), 5% fetal bovine serum (FBS) and 1% penicillin/streptomycin. Cultures were enriched with myocytes by pre-plating for 90 min to deplete the population of non-myocytes. Non-attached cells were plated onto 6- or 96-well plates at an appropriate cell density. […]
After 24 hours, the cardiomyocytes were treated with different concentrations of test compound in culture medium with 0.1% DMSO. […] Thirty minutes after starting the treatments, the cells were incubated in the hypoxic culture chamber (N2/CO2, 95%/5%; final measured O2: 0.3%) for 36 hours. […]
At the end of the treatment period, flow cytometry were performed to measure the amount of apoptotic cells. […] The mixture was incubated for 15 min in the dark at room temperature, and cellular fluorescence was then measured by FACS scan flow cytometry.

[2] = system: amyloid-beta 1-42 injured primary cortical rat neurons; test: In vitro Alzheimer disease model: amyloid-beta 1-42 injured primary cortical rat neurons; type: cell-based; settings: Amyloid-beta 1-42 20 μM, 24 hours; total number of neurons (MAP-2)
Method: Rat cortical neurons were cultured as described by Singer et al., (1999 J. Neuroscience 19 pp2455-63) and Callizot et al., (2013 J.Neurosci. Res. 91 pp706-16). Pregnant females (Wistar; Janvier Labs) at 15 days of gestation were killed by cervical dislocation. Fetuses were collected and immediately placed in ice-cold L15 Leibovitz medium (Pan Biotech, Batch: 9310614) with a 2% penicillin (10,000 U/mI) and streptomycin (10 mg/ml) solution (PS; Pan Biotech, Batch: 1451013) and 1% bovine serum albumin (BSA; Pan Biotech, Batch: h140603). Cortex was treated for 20 min at 37° C. with a trypsin-EDTA (Pan Biotech, Batch: 5890314) solution at a final concentration of 0.05% trypsin and 0.02% EDTA. […] Viable cells were counted in a Neubauer cytometer, using the trypan blue exclusion test. […]
The Amyloid-beta1-42 preparation was done following the procedure described by Callizot et al., 2013. […] Amyloid-beta 1-42 preparation was added to a final concentration of 20 μM (including to ˜2 μM of toxic oligomers measured by WB) diluted in control medium in presence of drugs. […]
The immunolabeled cultures were automatically examined with ImageXpress (Molecular device USA) at ×20 magnification. For each condition, 30 automatically fields per well (representing ˜80% of the total surface of the well) from 3 wells were analyzed. […] All values were expressed as mean +/−SEM (s.e.mean) (n=3 wells per condition per culture).

SMILES	protection from hypoxia-induced apoptosis (FIG. 10) [1]	protection of amyloid-beta 1-42 injured primary cortical rat neurons (FIG. 4) [2]
CCO/N=C(\N)N/N=C/c1ccccc1Cl [Compound 10, 2-(2-chlorobenzylidene)-N′-ethoxyhydrazinecarboximidamide]	protects	
CCCONC(=N)N/N=C/c1ccccc1Cl [Compound 12, 2-(2-chlorobenzylidene)-N-propoxyhydrazinecarboximidamide]		dose dependent protection
